A word on the EC50: it is the concentration at which the effect is half-maximal.

These results are taken from patent publication US9745322B2, “Compounds for the treatment of hepatitis C” (priority 2013, dated 2017).

For this test, the system named is HCV pseudoparticles, genotype 1a (H77C) E1 and E2 envelope. Nature of the test: HCV pseudoparticle infection assay (luciferase reporter, Huh7 cells). It is filed as cell-based, HCV genotype 1a (H77C). The settings on record: Hepatitis C virus, Huh-7, 48 h, read-out: EC50 (nM) 1a (H77C), HCV pseudoparticles genotype 1a H77C, Huh7 cells, luciferase 2 days after infection.

Where two headings read alike, the source gives them in different places.

Take `COC(=O)[C@H](CNC(=O)C(=O)N(C)C)NC(=O)c1ccc2cc1OCCCCCCOc1ccc(cc1)CNc1nc(nc(OCC(F)(F)F)n1)N2` [Example 1001]: the 50% effective concentration (EC50) reads like this: (class symbol) 0.1 to 100 nM; (numeric value) 0.624 nM.
With `CNC(=O)C(=O)NC[C@H](NC(=O)c1ccc2cc1OCCCCCCOc1ccc(cc1)CNc1nc(nc(OCC(F)(F)F)n1)N2)C(=O)OC` [Example 1002], the EC50 (class symbol) lay within 0.1 to 100 nM.
On to `COC(=O)[C@H](CNC(=O)C(N)=O)NC(=O)c1ccc2cc1OCCCCCCOc1ccc(cc1)CNc1nc(nc(OCC(F)(F)F)n1)N2` [Example 1003], for which the 50% effective concentration (EC50) (class symbol) lay within 0.1 to 100 nM.
The same measure, in the same setting: with `CN(C)C(=O)C(=O)NC[C@H](NC(=O)c1ccc2cc1OCCCCCCOc1ccc(cc1)CNc1nc(nc(OCC(F)(F)F)n1)N2)C(=O)O` [Example 1004] the figure was 0.1 to 100 nM.
`CNC(=O)C(=O)NC[C@H](NC(=O)c1ccc2cc1OCCCCCCOc1ccc(cc1)CNc1nc(nc(OCC(F)(F)F)n1)N2)C(=O)O` [Example 1005]: the EC50 (class symbol) was 0.1 to 100 nM and the EC50 (numeric value) was determined as 2.47 nM.
